{
  "source": "patent US11795190B2",
  "about": "“D-glycero-B-D-heptose 1-phosphate (HMP) conjugates and use for targeted immune modulation” (NATIONAL RESEARCH COUNCIL OF CANADA, priority 2017, dated 2023)",
  "tested_on": "HEK 293T cells encoding an NF-κB-driven luciferase reporter gene",
  "assay": "NF-κB-driven luciferase reporter assay in HEK 293T cells",
  "assay_type": "cell-based, human",
  "conditions": "FIG. 12; HEK 293T; 10, 30 or 50 μg/mL, digitonin 20 min, luciferase after 6 hours",
  "description": "FIGS. 10A-B. Effect of chemically synthesised analogues on human embryonic kidney cells (HEK 293T) encoding an NF-κB-driven luciferase reporter gene. NF-κB luciferase activity was measured in wild type (WT) or TIFA knockout (TIFA KO) cells treated with compounds in the presence of digitonin for 20 min, washed, and then cultured in normal medium without the synthetic compounds for 6 hrs after treatment, before luciferase activity was measured. (A) Cells were treated with 10 μg/mL of the indicated compound. Data are means±standard error mean of technical triplicates. (B) Cells were treated with two different molar concentrations of compound (30 μM or 150 μM). Two batches of DD-β-HBP and DD-β-HMP synthesized independently of one another were tested (batch #1 and batch #2) to assess consistency of the chemical synthesis. Data are means±standard error mean of technical triplicates and are representative of three independent experiments. JS-12: D-glycero-D-manno-heptose; JS-2: D-glycero-D-manno-heptose 7-phosphate; JS-7:D-glycero-β-D-manno-heptose-phosphate; JS-8: D-glycero-α-D-manno-heptose-phosphate; JS-9: β-D-mannose phosphate; JS-6:D-glycero-β-D-manno heptose 1,7-biphosphate; JS-5: D-glycero-α-D-manno heptose 1,7-biphosphate.\nFIG. 12. Effects of compounds/products according to the invention on HEK 293T cells encoding an NF-κB-driven luciferase reporter gene. HEK 293T cells were transfected with a plasmid encoding an NF-κB-driven luciferase reporter. After 24 hours, cells were stimulated for 20 minutes in permeabilization buffer (5 μg/mL digitonin) in the presence of water or 10 μg/mL, 30 μg/mL, or 50 μg/mL of indicated synthetic compounds according to the invention. Treatment was removed; cells were washed and incubated for 6 hours incomplete medium. A luciferase assay was then performed. JS-12a control: D-glycero-D-manno heptose. The results are the means±standard error of the mean of three technical replicates. JS-10: 7-O-(Aminoethyl)-D-glycero-β-D-manno-heptopyranose phosphate; JS-11: 7-O-(Aminoethyl)-D-glycero-D-manno-heptopyranose; JS-12: D-glycero-D-manno-heptose; Js-13: pH-Rhodo-7-O-(aminoethyl)-D-glycero-β-D-manno-heptopyranose phosphate.\nFIG. 14. Effects of compounds/products according to the invention on HEK 293T cells encoding an NF-κB-driven luciferase reporter gene. HEK 293T cells were transfected with a plasmid encoding an NF-κB-driven luciferase reporter. After 24 hours, cells were stimulated for 20 minutes in permeabilization buffer (5 μg/mL digitonin) in the presence of water, or either 30 μM or 150 μM of indicated synthetic compounds according to the invention. Treatment was removed; cells were washed and incubated for 6 hours in complete medium. A luciferase assay was then performed. […]",
  "data": [
    {"compound": "NCCOC[C@@H](O)C1O[C@@H](OP(=O)([O-])[O-])C(O)[C@@H](O)[C@@H]1O.[Na+].[Na+]", "note": "(stereo partly drawn) [JS-10a, 7-O-(Aminoethyl)-D-glycero-β-D-manno-heptopyranose phosphate]", "values": [
      {"measurement": "inflammatory response (NF-κB luciferase)", "result": "modest inflammatory response"}
    ]}
  ]
}
